Results: patent publication US4229533A, “Method for producing antibiotic C-15003 P-4” (priority 1977, dated 1980)

Assays:
Cochlioborus miyabeanus = test: Activity against microorganisms; assay type: cell-based
Proteus mirabilis = test: Antimicrobial activity by the paper disc method; assay type: cell-based; details: 8 mm, 0.02 ml of a 300 μg/ml solution, trypticase-soy agar
Experimental: (§1) With trypticase-soy agar (BBL) as an assay medium, the inhibitory concentrations against the microorganisms described below were investigated by the paper disc method. Thus, filter-paper discs (Toyo Seisakusho, thin-type, 8 mm in dia.) each impregnated with 0.02 ml of a 300 μg/ml solution of P-4 were placed on agar plates respectively inoculated with the microorganisms described below. P-4 had no activity against the following bacteria. Escherichia coli, Proteus vulgaris, Proteus mirabilis, Pseudomonas aeruginosa, Staphylococcus aureus, Bacillus subtilis, Bacillus cereus, Klebsiella pneumoniae, Serratia marcescens and Mycobacterium avium

Bacillus cereus = test: Antimicrobial activity by the paper disc method; assay type: cell-based; details: 8 mm, 0.02 ml of a 300 μg/ml solution, trypticase-soy agar
Experimental: as §1

Serratia marcescens = test: Antimicrobial activity by the paper disc method; assay type: cell-based; details: 8 mm, 0.02 ml of a 300 μg/ml solution, trypticase-soy agar
Experimental: as §1

Pseudomonas aeruginosa = test: Antimicrobial activity by the paper disc method; assay type: cell-based; details: 8 mm, 0.02 ml of a 300 μg/ml solution, trypticase-soy agar
Experimental: as §1

Staphylococcus aureus = test: Antimicrobial activity by the paper disc method; assay type: cell-based; details: 8 mm, 0.02 ml of a 300 μg/ml solution, trypticase-soy agar
Experimental: as §1

Mycobacterium avium = test: Antimicrobial activity by the paper disc method; assay type: cell-based; details: 8 mm, 0.02 ml of a 300 μg/ml solution, trypticase-soy agar
Experimental: as §1

Escherichia coli = test: Antimicrobial activity by the paper disc method; assay type: cell-based; details: 8 mm, 0.02 ml of a 300 μg/ml solution, trypticase-soy agar
Experimental: as §1

Bacillus subtilis = test: Antimicrobial activity by the paper disc method; assay type: cell-based; details: 8 mm, 0.02 ml of a 300 μg/ml solution, trypticase-soy agar
Experimental: as §1

Proteus vulgaris = test: Antimicrobial activity by the paper disc method; assay type: cell-based; details: 8 mm, 0.02 ml of a 300 μg/ml solution, trypticase-soy agar
Experimental: as §1

Klebsiella pneumoniae = test: Antimicrobial activity by the paper disc method; assay type: cell-based; details: 8 mm, 0.02 ml of a 300 μg/ml solution, trypticase-soy agar
Experimental: as §1

Solubility = assay type: physicochemical
Cryptococcus neoformans = test: Activity against microorganisms; assay type: cell-based
P388 leukemia = test: Antitumour activity upon P388 leukemia in mice; assay type: in vivo, mouse; details: 1×10^6 cells/animal i.p., 0.00625 mg/kg/day intraperitoneally for 9 consecutive days
Description: The therapeutic effects of P-4 (dosed intraperitoneally for 9 consecutive days) upon P388 leukemia in mice (1×10^6 cells/animal, mouse, intraperitoneally transplanted) was investigated.

Fusicladium levieri = test: Activity against microorganisms; assay type: cell-based
Pyricularia oryzae = assay type: cell-based
[1] = test system: Helminthosporium sigmoidium var. irregulare; test: Activity against microorganisms; assay type: cell-based
Rhodotorula ruba = test: Activity against microorganisms; assay type: cell-based
Sclerotinia screrotiorum = test: Activity against microorganisms; assay type: cell-based
Trichophyton rubrum = test: Activity against microorganisms; assay type: cell-based
[2] = Preliminary acute toxicity test with mice; details: mouse, in vivo, ip, intraperitoneal
Description: In a preliminary acute toxicity test with mice as test animals, which involved intraperitoneal injections of P-4.

Pellicularia sasakii = test: Activity against microorganisms; assay type: cell-based

Which “activity against Cochlioborus miyabeanus” value (Cochlioborus miyabeanus) does the source give for `COc1cc2cc(c1Cl)N(C)C(=O)CC(OC(=O)CC(C)C)C1(C)OC1C(C)C1CC(O)(NC(=O)O1)C(OC)C=CC=C(C)C2` (stereo not drawn) [P-4] here?
Its value is “had the activity”.

What about the “activity against Proteus mirabilis” value (Proteus mirabilis) of the same molecule?
The value was “no activity”.

What about the “activity against Bacillus cereus” value (Bacillus cereus) of the same molecule?
The value was “no activity”.

And the “activity against Serratia marcescens” value (Serratia marcescens)?
Its value is “no activity”.

And the “activity against Pseudomonas aeruginosa” value (Pseudomonas aeruginosa)?
Its value is “no activity”.

And the “activity against Staphylococcus aureus” value (Staphylococcus aureus)?
Its value is “no activity”.

And the “activity against Mycobacterium avium” value (Mycobacterium avium)?
Its value is “no activity”.

What about the “activity against Escherichia coli” value (Escherichia coli) of the same molecule?
The value was “no activity”.

And the “activity against Bacillus subtilis” value (Bacillus subtilis)?
The value was “no activity”.

What about the “activity against Proteus vulgaris” value (Proteus vulgaris) of the same molecule?
The value was “no activity”.

And the “activity against Klebsiella pneumoniae” value (Klebsiella pneumoniae)?
The value was “no activity”.

And the Solubility (Solubility; in benzene, ether)?
The Solubility was “Sparingly soluble”.

And the Solubility (Solubility; in chloroform, ethyl acetate, acetone, ethanol, methanol, pyridine, tetrahydrofuran, dimethylsulfoxide)?
Its Solubility is “Soluble”.

What about the Solubility (Solubility; in petr. ether, hexane, water) of the same molecule?
The Solubility was “Insoluble”.

And the “activity against Cryptococcus neoformans” value (Cryptococcus neoformans)?
Its value is “had the activity”.

And the life-span-extending ratio (P388 leukemia)?
Its life-span-extending ratio is 180%.

What about the “activity against Fusicladium levieri” value (Fusicladium levieri) of the same molecule?
Its value is “had the activity”.

What about the “activity against Pyricularia oryzae” value (Pyricularia oryzae) of the same molecule?
The value was “had the activity”.

And the “activity against Helminthosporium sigmoidium var. irregulare” value [1]?
Its value is “had the activity”.

What about the “activity against Rhodotorula ruba” value (Rhodotorula ruba) of the same molecule?
The value was “had the activity”.

What about the “activity against Sclerotinia screrotiorum” value (Sclerotinia screrotiorum) of the same molecule?
Its value is “had the activity”.

What about the “activity against Trichophyton rubrum” value (Trichophyton rubrum) of the same molecule?
Its value is “had the activity”.

And the LD50 [2]?
Its LD50 is > 0.313 mg/kg.

What about the “activity against Pellicularia sasakii” value (Pellicularia sasakii) of the same molecule?
Its value is “had the activity”.
